Results from patent EP0309566B1, “STLV-III-RELATED POLYPEPTIDES, DIAGNOSTIC SYSTEMS AND ASSAY METHODS” (JOHNSON AND JOHNSON, priority 1987, dated 1994).

System: sera from Swedish blood donors negative for HIV-1 and HIV-2 antibodies
Test: Specificity ELISA (Example 12, Figure 3), negative control sera
Format: binding, human
Conditions: 20 negative control sera; positive O.D. above 0.150
From the text: In the Figures forming a portion of the disclosure of this invention: • Figure 1 illustrates a portion of the STLV-IIImac TMP amino acid residue sequence. The sequence is shown from left to right and in the direction of amino-terminus to carboxy-terminus in a single-letter code. The residue positions have been numbered as illustrated from 1-33. • Figure 2 illustrates, in a manner similar to Figure 1, a portion of the amino acid residue sequence of the HIV-1 TMP and represent gp41 amino acid residues […] as described in Ratner et al., Nature, 313:277-283 (1985). However, for ease of discussion, those residue positions have been renumbered as illustrated from 1-32. • Figure 3 contains 2 panels illustrating antibody determinations using a diagnostic system of this invention to assay (a) 20 sera from individuals in Guinea-Bissau previously determined to have antibodies against HIV-related viruses (West Africans), (b) 20 sera from HIV-1-infected individuals and (c) 20 sera from blood donors without antibodies to HIV-1 or HIV-2. Sera were considered positive (closed symbols) when they produced optical density (O.D.) values above 0.150 (the mean O.D. of negative samples plus 6 standard deviations). Negative sera are represented by open symbols. […]

## AIEKYLEDQAQLNAWCAFRQVC [p80]
  immunoreaction with sera: did not produce any substantial immunoreaction
